From ChEMBL document CHEMBL3507680, “University of Dundee, Gates Library screen for HepG2 cell viability” come the findings set out here.

The data set in a line: Human HepG2 cell viability assay in 384 well format. Conditions: HepG2 cells, read-out: Inhibition. It counts as toxicity, cell-based. Further details: dose 125 nL, time 70.5 hour; cytotoxicity at 70.5 h: concentration not given beside the values.

Molecules are shown by their SMILES.

On to `CCOC(C)c1noc(CN2CCN(Cc3cccc(F)c3)CC2)n1` (stereo not drawn), for which the cytotoxicity at 70.5 h is -7.41%.

With `CCC(=O)N1CSCC1C(=O)N(C)CCc1ccccc1` (stereo not drawn), the cytotoxicity at 70.5 h came out at 7.14%.

With `O=C(CCNS(=O)(=O)c1cccnc1)N1CCCCC1`, the cytotoxicity at 70.5 h was found to be 15.8%. Consider `O=C(c1ccc(-n2ccnc2)nn1)N1CCCC1CCc1ccccc1` (stereo not drawn), for which the cytotoxicity at 70.5 h was -19.5%. For `CCc1nc(CN(C)C(=O)NC(C)c2cccc(NC(C)=O)c2)cs1` (stereo not drawn), the cytotoxicity at 70.5 h is 12.9%. Under `COc1ccc(Nc2cc(C)nc(C)n2)cc1N1CCCC1=O` stands -7.1%; under `CCc1nc(CN(C)C(=O)NCc2cccc(NC(C)=O)c2)cs1`, -10.2%; under `c1csc(-c2noc(CN3CCc4c(ncn4C4CC4)C3)n2)c1`, -14.5%. Under `CCCC(C#N)NC(=O)COC1CCCCC1` (stereo not drawn) stands 6.33%; under `CN(CCc1ccncc1)C(=O)C1CSCN1C(=O)C(C)(C)C` (stereo not drawn), -8.71%. Under `c1ccc(-c2noc(CN3CCc4c(ncn4C4CC4)C3)n2)nc1` stands -6.92%. Turning to `Cc1ccc(OCC(=O)Nc2cnccc2SCCCO)cc1C`, the cytotoxicity at 70.5 h stood at 9.63%. Under `COc1ccc(Nc2ccc(C#N)cn2)cc1N1CCCC1=O` stands 5.76%; under `CC(C)C1CN(S(=O)(=O)c2cccc(C#N)c2)CCS1` (stereo not drawn), 8.4%. Regarding `Cc1ccc(-c2nc(CN3CCn4c(nnc4C4CC4)C3)no2)cc1`, the cytotoxicity at 70.5 h was 10.2%. Under `CN1CCC(NC(=O)CCCc2cc(Cl)sc2Cl)C1=O` (stereo not drawn) stands -9.29%; under `Cc1ccsc1CNC(=O)c1ccc2c(c1)CCC(=O)N2`, 16.1%. `O=C1CCc2cc(C(=O)NCc3ccc(Cl)s3)ccc2N1`: the cytotoxicity at 70.5 h was -3.83%. On to `Cn1ccc(C(=O)NCCOc2ccc3c(c2)OCO3)cc1=O`, for which the cytotoxicity at 70.5 h was -6.82%. Under `CCOc1ccc(NC(C)C(=O)Nc2cc(C)no2)cc1` (stereo not drawn) stands -5.28%.

Take `Cc1ccc(S(=O)(=O)CCC(=O)NCc2nnc3n2CCC3)cc1`: the cytotoxicity at 70.5 h is -3.09%.

Turning to `CCOc1ccc(CN(C)C(C)C(=O)Nc2cc(C)no2)cc1` (stereo not drawn), the cytotoxicity at 70.5 h is -5.64%. The value for `COc1ccc(OCCN(C)c2cc(C)nc(N)n2)cc1` was -6.24%. On to `NC(=O)CN(Cc1ccc(Br)cc1)C(=O)c1ccncc1`, for which the cytotoxicity at 70.5 h is -2.62%. The value for `NC(=O)CN(Cc1ccc(Br)cc1)C(=O)c1cnccn1` was -5.94%. The value for `NC(=O)CN(Cc1ccc(Br)cc1)C(=O)c1ccccn1` was -4.46%; that for `CC(C)c1nn(C)c(N(C)C)c1CNC1CCCCNC1=O` (stereo not drawn) was -4.04%. The value for `Cc1nn(C)c(N2CCOCC2)c1CNC1CCCCNC1=O` (stereo not drawn) was -5.43%; that for `Cc1nn(C)c(Oc2ccccc2)c1CNC1CCCCNC1=O` (stereo not drawn) was -6.4%; that for `Cn1cc(C2CCCN2C(=O)CCn2c(=O)oc3ccccc32)cn1` (stereo not drawn) was -2.42%. In the case of `Cc1cc(N(Cc2ccon2)S(C)(=O)=O)ccc1Br`, the cytotoxicity at 70.5 h was 17.3%.

Consider `O=C(c1cc(-n2cccn2)ccn1)N(CC1CCC1)CC(F)(F)F`, for which the cytotoxicity at 70.5 h is -3.45%. The value for `Cn1ccc(C(=O)NCCOc2ccc3c(c2)CCC3)cc1=O` was -3.77%. The value for `Cc1cc(CNC2(c3ccccc3)CCCCC2)no1` was -4.77%. The value for `O=C(c1cc(-n2cccn2)ccn1)N(CC(F)(F)F)C1CCCC1` was -2.14%; that for `CC(O)CN1CCC(CN(C)CC(=O)NC(C)C)CC1` (stereo not drawn) was -1.64%; that for `CC(O)CN1CCC(CN(C)CCC(=O)NC2CCCCC2)CC1` (stereo not drawn) was 14.6%.

For `Clc1ccc(CN2CCc3c(ncn3C3CC3)C2)c2ncccc12`, the cytotoxicity at 70.5 h was -2.64%. Under `Cc1cnn(CCNCc2c(C)nn(CCO)c2C)c1` stands 2.83%; under `CC(C)Cc1ncc(CNc2cnccc2CO)s1`, -1.94%; under `Cc1cc(C)n(Cc2cccc(C(=O)N(CCC#N)CCC#N)c2)n1`, -0.535%.

For `COC(=O)CCCN(C)C(=O)c1cc(F)cc2[nH]cnc12`, the cytotoxicity at 70.5 h was determined as 23.5%.

For `COC(=O)NC1(C(=O)NCc2ccc(-c3ccn[nH]3)cc2)CCCC1`, the cytotoxicity at 70.5 h is -0.909%. Under `CCNC(=O)NC1CN(CC(=O)NCc2ccccc2C)C[C@@H]1OC` (stereo partly drawn) stands 1.44%. With `COc1ccc(S(=O)(=O)N2CC(CC(=O)O)c3ccccc32)cc1` (stereo not drawn), the cytotoxicity at 70.5 h was -0.927%. Under `O=C(c1[nH]nc2c1CCCC2)N1CCC(OCCN2CCCCC2)C1` (stereo not drawn) stands -2.83%.

Turning to `CCNC(=O)NC1CN(Cc2ccccc2N(C)C)C[C@@H]1OC` (stereo partly drawn), the cytotoxicity at 70.5 h was 5.63%.

Take `CCC(C)(CC(=O)O)NC(=O)Cc1ccccc1F` (stereo not drawn): the cytotoxicity at 70.5 h was found to be 26.6%. For the compound `CSC1(CNC(=O)NC(C)c2ccc(F)c(F)c2)CCOCC1` (stereo not drawn), the cytotoxicity at 70.5 h is -1.76%. The value for `CN(C)C(=O)Cc1ccccc1NCc1cccc(F)c1F` was 0.378%; that for `CCN(CCC(=O)OC)C(=O)c1cccc(Cn2nc(C)cc2C)c1` was 4.14%; that for `COc1ccc(C)c2c1N(C(=O)c1cnc(C)s1)CCC2` was -1.73%. The value for `O=S(=O)(CCSc1nccn1C1CC1)c1ccccc1` was -5.9%; that for `CSC1(CNC(=O)NC(C)Cc2cccc(F)c2)CCOCC1` (stereo not drawn) was 0.72%; that for `Cc1csc(CNc2cnn(CC(C)C)c2)n1` was 3.86%. The value for `Cc1c(C(=O)NS(=O)(=O)c2ccc(F)cc2)cnn1CC(C)C` was 20.5%; that for `CC(C)(C)OC(=O)N1CCCN1C(=O)c1cccc(F)c1F` was -5.84%; that for `CCC(C)(CC(=O)O)NC(=O)Cc1ccccc1Br` (stereo not drawn) was -4.24%. `CCN(Cc1nc(C2CC2)no1)Cc1ccc(C#N)cc1F`: the cytotoxicity at 70.5 h is -3.69%. Under `CC(NC1CCN(CCS(C)(=O)=O)CC1)c1cnn(C(C)C)c1` (stereo not drawn) stands -10.2%; under `COCc1noc(Cc2cc(Cl)c3c(c2)OCCCO3)n1`, -4.84%; under `COCC(C)NC(=O)CN1CCC(CO)CC1` (stereo not drawn), -3.9%.

As for `CC(Cn1cccn1)NC(=O)N(C)Cc1ccc(C(N)=O)cc1` (stereo not drawn), the cytotoxicity at 70.5 h came out at 37.9%.

As to `Cn1cc(NC(=O)c2cccc3cccnc23)ccc1=O`, the cytotoxicity at 70.5 h was -18.3%. `O=C1CCC(C(=O)Nc2ccc(=O)n(Cc3ccccc3Cl)c2)N1` (stereo not drawn): the cytotoxicity at 70.5 h is -4.13%.

With `O=C1NCC(C(=O)Nc2ccc(=O)n(Cc3ccccc3Cl)c2)N1` (stereo not drawn), the cytotoxicity at 70.5 h is -21.3%. Turning to `COc1ccc2c(OCC(=O)NCC(F)(F)F)ccnc2c1`, the cytotoxicity at 70.5 h was -15.8%. The value for `CN(C(=O)Nc1nncs1)C1CCN(c2ccccc2Cl)C1=O` (stereo not drawn) was -21.1%. Under `COc1cc(F)c(S(=O)(=O)Nc2cnc(O)cc2C)cc1OC` stands -11.9%; under `Cc1cc(O)ncc1NS(=O)(=O)c1cccc(F)c1F`, -19.8%. Under `CCC1C(=O)NCCN1c1nccc(C)n1` (stereo not drawn) stands 45.2%. As for `c1cnn(CCNCc2ccc(N3CCCCC3)cc2)c1`, the cytotoxicity at 70.5 h was -13.6%.

Turning to `CC(C)c1nsc(N2CCSCC2)n1`, the cytotoxicity at 70.5 h was -22.2%. As to `CC(=O)N(Cc1noc(C)n1)C1CCN(CC2(O)CCCCC2)C1` (stereo not drawn), the cytotoxicity at 70.5 h was -27.3%. The value for `O=C(Nc1cccc(OCc2ccc(F)cc2)c1)C1COCCO1` (stereo not drawn) was -4.75%; that for `Cc1nn(CCO)c(C)c1CNC1CCc2c(Cl)cccc21` (stereo not drawn) was 10.2%. The value for `CCN(CC)CC(=O)NCCc1csc(N2CCCC2)n1` was -3.59%. Under `Cc1ccc(C2COCCN2C(=O)c2ccc(CN(C)C)cc2)o1` (stereo not drawn) stands -6.21%; under `CCN(CC1CN(Cc2ncc(C)o2)CCO1)c1cccnn1` (stereo not drawn), -2.43%. Turning to `COc1cc(C(=O)N(CCC#N)Cc2ccccn2)cc(OC)c1C`, the cytotoxicity at 70.5 h is -6.63%.

As for `O=C(c1cnn(-c2ccccc2F)c1)N1CCN(CCO)CC1`, the cytotoxicity at 70.5 h was -3.38%. The value for `CC(C)c1cccc(CSc2nnc(CN3CCCC3=O)o2)n1` was -8%; that for `CCN(CC1CN(CCc2ccccn2)CCO1)c1cccnn1` (stereo not drawn) was -3.03%. The value for `COCc1noc(C2(c3ccc(F)cc3)CCOCC2)n1` was 28.8%; that for `O=C(NCC1(N2CCOCC2)CCSC1)Nc1ccc(F)cc1` (stereo not drawn) was -6.94%; that for `CCn1cc(NC(=O)NCC2(N3CCOCC3)CCSC2)cn1` (stereo not drawn) was -1.94%. Under `O=C(NCc1nnc2n1CCC2)N(Cc1ccco1)C1CC1` stands -10.5%. For `COc1ccnc(N2CCN(C(=O)CCc3nccs3)CC2)n1`, the cytotoxicity at 70.5 h was -10.9%.

In the case of `Cc1ccccc1C(=O)NCc1ccc(N2CCNC(=O)C2)c(F)c1`, the cytotoxicity at 70.5 h is -8%. The value for `CCCn1c(C)cc(C(=O)CN2C(=O)c3ccccc3CS2(=O)=O)c1C` was -10.8%.

Consider `Cc1cc(C)n(CC2CCCN2CCCS(=O)(=O)N(C)C)n1` (stereo not drawn), for which the cytotoxicity at 70.5 h was -9.4%. The value for `CCc1nc(COc2ccc(OCc3cnn(C)c3)cc2)no1` was -2.52%; that for `COCc1noc(C2(c3ccc(Br)cc3)CCOCC2)n1` was -10.1%.

Take `O=C(NCc1nnc2n1CCCC2)N(Cc1ccccc1F)C1CC1`: the cytotoxicity at 70.5 h is -11.1%. Under `CCc1noc(CNc2ccc(F)cc2OCC2CC2)n1` stands -7.55%. The value for `CS(=O)(=O)CCC(=O)NC1(c2cccc(Br)c2)CC1` was -8.28%; that for `CN(Cc1ccco1)Cc1ccccc1CNC(=O)c1cc[nH]n1` was -6.12%. Under `O=C(Nc1ccc(CCN2CCC(O)CC2)cc1)Nc1cccnc1` stands -1.85%; under `CC(c1ccc(Cl)cc1)N1CCN(CCNS(C)(=O)=O)CC1` (stereo not drawn), -0.037%. On to `c1ccc(-c2cc(CN3CCC(c4ccn[nH]4)CC3)on2)cc1`, for which the cytotoxicity at 70.5 h is -7.56%. Under `CCN(CCC(F)(F)F)C(=O)Nc1cccc(N2CCOCC2)c1` stands -7.71%; under `N#CCCCS(=O)(=O)N1CCCC1CC(=O)c1cccs1` (stereo not drawn), -6.62%; under `CCC(CNC(=O)c1ccc(Br)o1)N1CCc2ccccc2C1` (stereo not drawn), -7.37%.
